Laboratory results as given in US11827580B2, “Aminotetraline activators of serotonin receptors” (ATAI Life Sciences AG, priority 2021, dated 2023).
Counter-ions that a name gives are not always drawn.

What was measured:
5HT2A [1] = target: T1, 5HT2A (Homo sapiens, UniProt P28223); assay: PathHunter β-Arrestin assay; format: cell-based; parameters: host or cells: U2OS (human), stably transfected
Description: Arrestin Pathway (Performed by DiscoverX Eurofins)
The PathHunter® β-Arrestin assay monitors the activation of a GPCR in a homogenous, non-imaging assay format using a technology developed by DiscoverX called Enzyme Fragment Complementation (EFC) with β-galactosidase (β-Gal) as the functional reporter. […] EA is fused to β-Arrestin and PK is fused to the GPCR of interest. When the GPCR is activated and β-Arrestin is recruited to the receptor, ED and EA complementation occurs, restoring β-Gal activity which is measured using chemiluminescent PathHunter® Detection Reagents.
PathHunter cell lines (DiscoveRx Eurofins) were expanded from freezer stocks according to standard procedures. Human 5-HT2A receptor-mediated GPCR β-arrestin activity was evaluated in stably transfected human-derived U2OS cells. Cells were seeded in a total […] into white walled, 384-well microplates and incubated at 37° C. overnight prior to testing.
For agonist determination, cells were incubated with sample to induce response. Intermediate dilution of sample stocks was performed to generate 5× sample in assay buffer. 5 μL of 5× sample was added to cells and incubated at 37° C. or room temperature for 120 minutes. Vehicle concentration was 1%.
β-Arrestin assay signal was generated through a single addition of 12.5 or 15 μL (50% v/v) of PathHunter Detection reagent cocktail, followed by a one hour incubation at room temperature. Microplates were read following signal generation with a PerkinElmer Envision™ instrument for chemiluminescent signal detection.
Compound activity was analyzed using CBIS data analysis suite (ChemInnovation, CA). For agonist mode assays, percentage activity was calculated using the following formula: % Activity=100%×(mean RLU of test sample−mean RLU of vehicle control)/(mean MAX control ligand−mean RLU of vehicle control).
In these studies, the MAX control ligand response was generated using 1 μM serotonin.

Human 5-HT1A receptor = target: T2, Human 5-HT1A receptor (Homo sapiens, UniProt P08908); assay: cAMP secondary messenger pathway assay (HitHunter cAMP, Gi agonist mode); format: cell-based; conditions: CHO cells, forskolin present, read-out: EC50 5-HT1A (Gi signaling)
T2 construct: host or cells: CHO (hamster), stably transfected, cAMP Hunter cell line
T2 sequence (P08908 1-422): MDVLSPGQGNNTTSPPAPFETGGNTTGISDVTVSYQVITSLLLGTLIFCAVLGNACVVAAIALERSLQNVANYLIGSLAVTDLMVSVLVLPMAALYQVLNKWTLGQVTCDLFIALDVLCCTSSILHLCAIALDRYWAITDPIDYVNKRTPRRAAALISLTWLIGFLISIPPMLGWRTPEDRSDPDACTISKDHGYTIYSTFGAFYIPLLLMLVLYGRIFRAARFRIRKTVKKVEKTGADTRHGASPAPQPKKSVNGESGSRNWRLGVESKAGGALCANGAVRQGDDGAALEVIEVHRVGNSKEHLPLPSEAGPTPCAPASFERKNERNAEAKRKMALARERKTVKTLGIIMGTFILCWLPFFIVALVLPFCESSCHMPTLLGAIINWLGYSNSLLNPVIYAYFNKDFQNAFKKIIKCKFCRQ
Description: cAMP Secondary Messenger Pathway Assay Method (Performed by DiscoveRx Eurofins)
DiscoverX has developed a panel of cell lines stably expressing non-tagged GPCRs that signal through cAMP. Hit Hunter® cAMP assays monitor the activation of a GPCR via Gi and Gs secondary messenger signaling in a homogenous, non-imaging assay format using a technology developed by DiscoverX called Enzyme Fragment Complementation (EFC) with β-galactosidase (β-Gal) as the functional reporter. The enzyme is split into two complementary portions: EA for Enzyme Acceptor and ED for Enzyme Donor. ED is fused to cAMP and in the assay competes with cAMP generated by cells for binding to a cAMP-specific antibody. Active β-Gal is formed by complementation of exogenous EA to any unbound ED-cAMP. Active enzyme can then convert a chemiluminescent substrate, generating an output signal detectable on a standard microplate reader.
cAMP Hunter cell lines were expanded from freezer stocks according to standard procedures. Human 5-HT1A receptor-mediated cAMP signaling was evaluated in stably transfected hamster-derived CHO cells. Cells were seeded in a total volume of 20 μL into white walled, 384-well microplates and incubated at 37° C. overnight. cAMP modulation was determined using the DiscoverX HitHunter cAMP XS+ assay. […]
Compound activity was analyzed using CBIS data analysis suite (ChemInnovation, CA). […]

5HT2A [2] = target: T1, 5HT2A; assay: Calcium mobilization assay (Gq signaling); format: cell-based; parameters: host or cells: U2OS (human), stably transfected
Description: (§1) Calcium Mobilization Assay Method (Performed by DiscoveRx Eurofins)
(§2) The Calcium No-Wash^PLUS assay monitors the activation of a GPCR via Gq secondary messenger signaling in a live cell, non-imaging assay format. Calcium mobilization in PathHunter® cell lines or other cell lines stably expressing Gq-coupled GPCRs is monitored using a calcium-sensitive dye that is loaded into cells. GPCR activation by a compound results in the release of calcium from intracellular stores and an increase in dye fluorescence that is measured in real-time.
(§3) Cell lines expressing the GPCR of interest were expanded from freezer stocks according to standard procedures. Human 5-HT2A, 5-HT2B or 5-HT2C receptor-mediated calcium mobilization was evaluated in stably transfected human-derived U2OS (5-HT2A or 5-HT2B) or HEK (5-HT2B) cells. Cells were seeded in a total volume of 20 μL into black-walled, clear-bottom, Poly-D-lysine coated 384-well microplates and incubated at 37° C. overnight prior to testing.
Assays were performed in 1× Dye Loading Buffer consisting of 1× Dye, 1× Additive A and 2.5 mM Probenecid in HBSS/20 mM Hepes. Probenicid was prepared fresh. Cells were loaded with dye prior to testing. Media was aspirated from cells and replaced with 20 μL Dye Loading Buffer. Cells were incubated for 45 minutes at room temperature.
For agonist determination, cells were incubated with sample to induce response. After dye loading, cells were removed from the incubator and 10 μL HBSS/20 mM Hepes was added. 3× vehicle was included in the buffer when performing agonist dose curves to define the EC80 for subsequent antagonist assays. Cells were incubated for 30 minutes at room temperature in the dark to equilibrate plate temperature.
(§4) Intermediate dilution of sample stocks was performed to generate 4× sample in assay buffer. Compound agonist activity was measured on a FLIPR Tetra (MDS). Calcium mobilization was monitored for 2 minutes and 10 μL 4× sample in HBSS/20 mM Hepes was added to the cells seconds into the assay.
Compound activity data was analyzed using CBIS data analysis suite (ChemInnovation, CA). For agonist mode assays, percentage activity is calculated using the following formula: % Activity=100%×(mean RFU of test sample−mean RFU of vehicle control)/(mean MAX RFU control ligand−mean RFU of vehicle control).
In these studies, the MAX RFU was generated by using 0.1 μM serotonin for the calcium mobilization assay.

5-HT receptors = conditions: cited from earlier work
Human 5-HT2B receptor = target: T3, Human 5-HT2B receptor (Homo sapiens, UniProt P41595); assay: Calcium mobilization assay (Gq signaling); format: cell-based
T3 construct: host or cells: U2OS or HEK (the text names 5-HT2B under both)
Description: as §1, §2
as §3, with “testing. […]” for “testing.”
as §4
(§5) Compound activity data was analyzed using CBIS data analysis suite (ChemInnovation, CA). […]

Human 5-HT2C receptor = target: T4, Human 5-HT2C receptor (Homo sapiens, UniProt P28335); assay: Calcium mobilization assay (Gq signaling); format: cell-based
T4 construct: host or cells: U2OS or HEK (not assigned to 5-HT2C in the text)
T4 sequence (P28335 33-458): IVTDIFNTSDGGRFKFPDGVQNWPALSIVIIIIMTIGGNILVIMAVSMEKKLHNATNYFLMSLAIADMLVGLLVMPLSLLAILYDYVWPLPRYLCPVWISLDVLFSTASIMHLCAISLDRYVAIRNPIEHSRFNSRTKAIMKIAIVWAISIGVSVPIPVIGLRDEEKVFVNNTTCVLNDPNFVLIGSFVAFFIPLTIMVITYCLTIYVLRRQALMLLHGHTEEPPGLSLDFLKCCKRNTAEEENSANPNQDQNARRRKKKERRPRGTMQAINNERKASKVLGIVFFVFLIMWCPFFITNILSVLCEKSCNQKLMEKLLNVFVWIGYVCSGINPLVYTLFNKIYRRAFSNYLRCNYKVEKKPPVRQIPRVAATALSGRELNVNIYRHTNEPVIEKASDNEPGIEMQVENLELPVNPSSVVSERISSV
Description: as §1, §2
as §3, with “testing. […]” for “testing.”
as §4, §5

[3] = in comparison to mescaline or 2,5-dimethoxy-4-methylphenylisopropylamine at similar doses; cited from earlier work
5HT2A [4] = target: T1, 5HT2A; assay: 5HT2A activation (%) max at two concentrations (Table 1); format: cell-based; conditions: for 5HT2A activation (%) max @ 03 μM: 03 μM [sic]; for 5HT2A activation (%) max @ 30 μM: 30 μM (first value of the cell)

T1 sequence (P28223 whole entry): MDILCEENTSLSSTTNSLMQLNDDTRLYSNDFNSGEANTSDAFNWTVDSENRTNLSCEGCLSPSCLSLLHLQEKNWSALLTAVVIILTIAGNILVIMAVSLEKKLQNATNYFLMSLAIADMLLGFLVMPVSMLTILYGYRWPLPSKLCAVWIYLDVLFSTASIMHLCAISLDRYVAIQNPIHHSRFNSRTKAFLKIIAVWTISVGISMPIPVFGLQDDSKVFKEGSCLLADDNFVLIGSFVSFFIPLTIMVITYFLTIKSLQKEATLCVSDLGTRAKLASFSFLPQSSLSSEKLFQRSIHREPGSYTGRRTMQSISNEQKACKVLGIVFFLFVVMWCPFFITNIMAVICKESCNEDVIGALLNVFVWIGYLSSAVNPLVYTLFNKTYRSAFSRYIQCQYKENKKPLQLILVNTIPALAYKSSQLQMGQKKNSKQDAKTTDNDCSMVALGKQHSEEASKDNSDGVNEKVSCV
T3 sequence (P41595 whole entry): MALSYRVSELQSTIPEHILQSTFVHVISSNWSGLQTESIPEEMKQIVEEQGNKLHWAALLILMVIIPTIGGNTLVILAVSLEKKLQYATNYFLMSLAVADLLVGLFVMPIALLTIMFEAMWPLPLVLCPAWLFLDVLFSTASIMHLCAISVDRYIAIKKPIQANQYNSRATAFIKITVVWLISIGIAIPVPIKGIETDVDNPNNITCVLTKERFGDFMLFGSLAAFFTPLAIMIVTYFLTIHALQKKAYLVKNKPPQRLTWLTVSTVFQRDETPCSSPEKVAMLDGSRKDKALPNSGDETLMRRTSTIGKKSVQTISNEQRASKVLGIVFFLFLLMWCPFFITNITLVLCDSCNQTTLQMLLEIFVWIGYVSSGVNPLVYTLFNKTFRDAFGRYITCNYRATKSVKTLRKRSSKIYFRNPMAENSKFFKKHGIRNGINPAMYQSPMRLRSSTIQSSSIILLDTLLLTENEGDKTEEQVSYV

Structure (SMILES) | agonism / potency for β-arrestin recruitment at 5-HT2A (5HT2A [1]) | EC50 (5HT2A [1]; U2OS cells, read-out: EC50 5-HT2A (β-arrestin signaling)) [µM] | Emax (5HT2A [1]; read-out: maximum efficacy levels (partial agonism), pathway not given, β-arrestin by context) [%] | EC50 (Human 5-HT1A receptor) [µM] | agonism of 5-HT2A Gq-mediated signaling (5HT2A [2]) | potency bias, 5-HT2A Gq-mediated signaling versus β-arrestin recruitment (5HT2A [2]; FIG. 1B) [fold] | increase in potency at 5-HT2A compared to 5-HT2B (5HT2A [2]; Gq signaling, FIG. 1A) [fold] | EC50 (5HT2A [2]; calcium mobilization) [µM] | Emax (5HT2A [2]; compared to the maximum serotonin response, read-out: max activation of 5-HT2A Gq-mediated signaling) [%] | activity at 5-HT receptors (5-HT receptors) | EC50 (Human 5-HT2B receptor) [µM] | EC50 (Human 5-HT2C receptor) [µM] | common psychedelic side effects in rats [3] | 5HT2A activation (%) max @ 03 μM (5HT2A [4]) [%] | 5HT2A activation (%) max @ 30 μM (5HT2A [4]) [%]
COc1cc(C)c(OC)c2c1CC(N)CC2 (stereo not shown) [Compound 1-2, 5,8-dimethoxy-6-methyl-1,2,3,4-tetrahydronaphthalen-2-amine] | partial agonism | 0.386 | 66 | 0.438 | full-agonism | ~10 | ~8 | 0.0388 | 97 | has activity at 5-HT receptors | 0.315 | 0.0048 | failed to elicit common psychedelic side effects | 60.9 | 81.9
CNC1CCc2c(OC)ccc(OC)c2C1 (stereo not shown) [Compound 1-4, 5,8-dimethoxy-N-methyl-1,2,3,4-tetrahydronaphthalen-2-amine hydrochloride] | – | – | – | – | – | – | – | – | – | – | – | – | – | 8.5 | 20.3
COc1ccc(OC)c2c1CCCC2CN (stereo not shown) [Compound 3-1, (5,8-dimethoxy-1,2,3,4-tetrahydronaphthalen-1-yl)methanamine hydrochloride] | – | – | – | – | – | – | – | – | – | – | – | – | – | 1.5 | 53
